Test results reported in ChEMBL document CHEMBL6120978, “Anticancer activity of salinomycin quaternary phosphonium salts” (Eur J Med Chem, 2025).
Converted amounts (≈) assume the structure as drawn. The source made the active and inactive calls. The calls are words filed in the database; no cut-off is given here.

What was measured:
SW480 = test: Cytotoxicity against human SW480 cells incubated for 72 hrs by MTT assay; format: functional, cell-based; conditions: SW480, 72 h
SW-620 = test: Cytotoxicity against human SW620 cells incubated for 72 hrs by MTT assay; format: functional, cell-based; conditions: SW-620, 72 h
PC-3 = test: Cytotoxicity against human PC-3 cells incubated for 72 hrs by MTT assay; format: functional, cell-based; conditions: PC-3, 72 h
MDA-MB-231 [1] = test: Cytotoxicity against human MDA-MB-231 cells incubated for 72 hrs by MTT assay; format: functional, cell-based; conditions: MDA-MB-231, 72 h
A549 [2] = test: Cytotoxicity against human A549 cells incubated for 72 hrs by MTT assay; format: functional, cell-based; conditions: A549, 72 h
[3] = Cytotoxicity against human HaCaT cells incubated for 72 hrs by MTT assay; format: toxicity, cell-based
[4] = Cytotoxicity against chinese hamster V79 cells incubated for 72 hrs by MTT assay; format: toxicity, cell-based, Cricetulus griseus
[5] = Selectivity index, ratio of IC50 for cytotoxicity against human HaCaT cells to IC50 for cytotoxicity against human SW480 cells; format: toxicity, cell-based; conditions: HaCaT cells versus SW480 cells, read-out: Ratio IC50
[6] = Selectivity index, ratio of IC50 for cytotoxicity against human HaCaT cells to IC50 for cytotoxicity against human SW620 cells; format: toxicity, cell-based; conditions: HaCaT cells versus SW620 cells, read-out: Ratio IC50
[7] = Selectivity index, ratio of IC50 for cytotoxicity against human HaCaT cells to IC50 for cytotoxicity against human PC-3 cells; format: toxicity, cell-based; conditions: HaCaT cells versus PC-3 cells, read-out: Ratio IC50
[8] = Selectivity index, ratio of IC50 for cytotoxicity against human HaCaT cells to IC50 for cytotoxicity against human MDA-MB-231 cells; format: toxicity, cell-based; conditions: HaCaT cells versus MDA-MB-231 cells, read-out: Ratio IC50
[9] = Selectivity index, ratio of IC50 for cytotoxicity against human HaCaT cells to IC50 for cytotoxicity against human A549 cells; format: toxicity, cell-based; conditions: HaCaT cells versus A549 cells, read-out: Ratio IC50
[10] = Selectivity index, ratio of IC50 for cytotoxicity against chinese hamster V79 cells to IC50 for cytotoxicity against human SW480 cells; format: toxicity, cell-based; conditions: V79 cells versus SW480 cells, read-out: Ratio IC50
[11] = Selectivity index, ratio of IC50 for cytotoxicity against chinese hamster V79 cells to IC50 for cytotoxicity against human SW620 cells; format: toxicity, cell-based; conditions: V79 cells versus SW620 cells, read-out: Ratio IC50
[12] = Selectivity index, ratio of IC50 for cytotoxicity against chinese hamster V79 cells to IC50 for cytotoxicity against human PC-3 cells; format: toxicity, cell-based; conditions: V79 cells versus PC-3 cells, read-out: Ratio IC50
[13] = Selectivity index, ratio of IC50 for cytotoxicity against chinese hamster V79 cells to IC50 for cytotoxicity against human MDA-MB-231 cells; format: toxicity, cell-based; conditions: V79 cells versus MDA-MB-231 cells, read-out: Ratio IC50
[14] = Selectivity index, ratio of IC50 for cytotoxicity against chinese hamster V79 cells to IC50 for cytotoxicity against human A549 cells; format: toxicity, cell-based; conditions: V79 cells versus A549 cells, read-out: Ratio IC50
A549 [15] = test: Effect on mitochondrial mass in human A549 cells assessed as increase in mean fluorescence intensity at IC50 incubated for 48 hrs by MitoTracker Green FM staining based flow cytometry analysis; format: functional, cell-based
MDA-MB-231 [16] = test: Effect on mitochondrial mass in human MDA-MB-231 cells assessed as increase in mean fluorescence intensity at IC50 incubated for 48 hrs by MitoTracker Green FM staining based flow cytometry analysis; format: functional, cell-based
A549 [17] = test: Effect on mitochondrial function in human A549 cells assessed as change in mean fluorescence intensity at IC50 incubated for 48 hrs by MitoTracker Red CMXRos staining based flow cytometry analysis; format: functional, cell-based
Mitochondrial membrane [18] = test: Induction of mitochondrial membrane potential loss in human A549 cells assessed as green fluorescence at IC50 incubated for 48 hrs MitoTracker Green FM staining based flow cytometry analysis (reference value: 8.93 %); format: cell membranes
MDA-MB-231 [19] = test: Induction of cell cycle arrest in human MDA-MB-231 cells assessed as inhibition of cell division at IC50 incubated for 24 hrs by propidium iodide staining based flow cytometry analysis; format: functional
A549 [20] = test: Induction of apoptosis in human A549 cells assessed as viable cells at IC50 incubated for 72 hrs by Annexin V-FITC staining based flow cytometry analysis (reference value: 95.49 %); format: functional
A549 [21] = test: Induction of apoptosis in human A549 cells assessed as early apoptotic cells at IC50 incubated for 72 hrs by Annexin V-FITC staining based flow cytometry analysis (reference value: 1.68 %); format: functional
A549 [22] = test: Induction of apoptosis in human A549 cells assessed as late apoptotic cells at IC50 incubated for 72 hrs by Annexin V-FITC staining based flow cytometry analysis (reference value: 1.86 %); format: functional
A549 [23] = test: Induction of apoptosis in human A549 cells assessed as necrotic cells at IC50 incubated for 72 hrs by Annexin V-FITC staining based flow cytometry analysis (reference value: 0.97 %); format: functional
MDA-MB-231 [24] = test: Induction of apoptosis in human MDA-MB-231 cells assessed as viable cells at IC50 incubated for 72 hrs by Annexin V-FITC staining based flow cytometry analysis (reference value: 91.53 %); format: functional
MDA-MB-231 [25] = test: Induction of apoptosis in human MDA-MB-231 cells assessed as early apoptotic cells at IC50 incubated for 72 hrs by Annexin V-FITC staining based flow cytometry analysis (reference value: 4.23 %); format: functional
MDA-MB-231 [26] = test: Induction of apoptosis in human MDA-MB-231 cells assessed as late apoptotic cells at IC50 incubated for 72 hrs by Annexin V-FITC staining based flow cytometry analysis (reference value: 3.07 %); format: functional
MDA-MB-231 [27] = test: Induction of apoptosis in human MDA-MB-231 cells assessed as necrotic cells at IC50 incubated for 72 hrs by Annexin V-FITC staining based flow cytometry analysis (reference value: 1.17 %); format: functional
Mitochondrial membrane [28] = test: Induction of mitochondrial membrane potential loss in human MDA-MB-231 cells assessed as green fluorescence at IC50 incubated for 48 hrs MitoTracker Green FM staining based flow cytometry analysis (reference value: 8.86 %); format: cell membranes
Mitochondrial membrane [29] = test: Induction of mitochondrial membrane potential loss in human MDA-MB-231 cells assessed as red fluorescence at IC50 incubated for 48 hrs MitoTrackerRed CMXRos staining based flow cytometry analysis (reference value: 91.1 %); format: cell membranes
Mitochondrial membrane [30] = test: Induction of mitochondrial membrane potential loss in human A549 cells assessed as red fluorescence at IC50 incubated for 48 hrs MitoTrackerRed CMXRos staining based flow cytometry analysis (reference value: 91.1 %); format: cell membranes
A549 [31] = test: Induction of ROS generation of human A549 cells at IC50 incubated for 6 hrs by CellROX Green staining based spectrofluorometer analysis; format: functional, cell-based
MDA-MB-231 [32] = test: Induction of ROS generation of human MDA-MB-231 cells at IC50 incubated for 6 hrs by CellROX Green staining based spectrofluorometer analysis; format: functional, cell-based
Staphylococcus aureus [33] = test: Antimicrobial activity against Staphylococcus aureus NCTC 4163 incubated for 18 hrs by twofold microdilution method; format: functional
Staphylococcus aureus [34] = test: Antimicrobial activity against Staphylococcus aureus ATCC 25923 incubated for 18 hrs by twofold microdilution method; format: functional
Staphylococcus aureus [35] = test: Antimicrobial activity against Staphylococcus aureus ATCC 6538 incubated for 18 hrs by twofold microdilution method; format: functional
Staphylococcus aureus [36] = test: Antimicrobial activity against Staphylococcus aureus ATCC 29213 incubated for 18 hrs by twofold microdilution method; format: functional
[37] = tested on: Staphylococcus epidermidis; test: Antimicrobial activity against Staphylococcus epidermidis ATCC 12228 incubated for 18 hrs by twofold microdilution method; format: functional
[38] = tested on: Staphylococcus epidermidis; test: Antimicrobial activity against Staphylococcus epidermidis ATCC 35984 incubated for 18 hrs by twofold microdilution method; format: functional
Escherichia coli = test: Antimicrobial activity against Escherichia coli ATCC 25922 incubated for 18 hrs by twofold microdilution method; format: functional
Pseudomonas aeruginosa = test: Antimicrobial activity against Pseudomonas aeruginosa ATCC 15442 incubated for 18 hrs by twofold microdilution method; format: functional
A549 [39] = test: Induction of mitochondrial respiration in human A549 cells assessed as oxygen consumption rate at 0.1 to 10 uM by Oxygraph-2K system; format: functional, cell-based; conditions: dose 0.1-10 µM
Lipid bilayer [40] = test: Induction of ionic transport in azolectin bilayer membrane assessed as specific channel-like structure formation in presence of HEPES buffer by electrophysiology technique
Lipid bilayer [41] = test: Induction of ionic transport in azolectin bilayer membrane assessed as irregular disturbance in membrane permeability in presence of HEPES buffer by electrophysiology technique
Lipid bilayer [42] = test: Induction of ionic transport in azolectin bilayer membrane assessed as membrane rupture in presence of HEPES buffer by electrophysiology technique
Lipid bilayer [43] = test: Induction of current generation in azolectin bilayer membrane upto 10 uM in presence of HEPES buffer by electrophysiology technique; format: cell membranes

CC[C@@H](C(=O)[C@@H](C)[C@@H](O)[C@H](C)[C@@H]1O[C@@H]([C@@H](CC)C(=O)O)CC[C@@H]1C)[C@H]1O[C@]2(C=C[C@@H](O)[C@]3(CC[C@@](C)([C@H]4CC[C@](O)(CC)[C@H](C)O4)O3)O2)[C@H](C)C[C@@H]1C [SALINOMYCIN]
IC50 (SW480): 1360 nM | IC50 (SW-620): 1810 nM | IC50 (PC-3): 3000 nM | IC50 (MDA-MB-231 [1]): 1220 nM | IC50 (A549 [2]): 1860 nM | IC50 at 72 h [3]: 800 nM | IC50 at 72 h [4]: 1440 nM | selectivity ratio [5]: 0.6 | selectivity ratio [6]: 0.4 | selectivity ratio [7]: 0.3 | selectivity ratio [8]: 0.66 | selectivity ratio [9]: 0.4 | selectivity ratio [10]: 1.1 | selectivity ratio [11]: 0.8 | selectivity ratio [12]: 0.5 | selectivity ratio [13]: 1.2 | selectivity ratio [14]: 0.8 | Activity (A549 [15]): Active; Slight Increase In Mfi Is Observed | Activity (MDA-MB-231 [16]): Active; Slight Increase In Mfi Is Observed | Activity (A549 [17]): inactive | Activity (Mitochondrial membrane [18]): 18.8% | Activity (MDA-MB-231 [19]): Active | Activity (A549 [20]): 84.56% | Activity (A549 [21]): 9.72% | Activity (A549 [22]): 2.05% | Activity (A549 [23]): 3.67% | Activity (MDA-MB-231 [24]): 76.94% | Activity (MDA-MB-231 [25]): 8.6% | Activity (MDA-MB-231 [26]): 11.49% | Activity (MDA-MB-231 [27]): 2.97% | Activity (Mitochondrial membrane [28]): 23.4% | Activity (Mitochondrial membrane [29]): 76.7% | Activity (Mitochondrial membrane [30]): 91.2% | Activity (A549 [31]): Active; Slight Insignificant Increase In Ros Level Was Observed | Activity (MDA-MB-231 [32]): Active; Slight Insignificant Increase In Ros Level Was Observed | MIC (Staphylococcus aureus [33]): 0.5 µg/mL (≈ 0.666 µM) | MIC (Staphylococcus aureus [34]): 0.5 µg/mL (≈ 0.666 µM) | MIC (Staphylococcus aureus [35]): 0.5 µg/mL (≈ 0.666 µM) | MIC (Staphylococcus aureus [36]): 0.5 µg/mL (≈ 0.666 µM) | MIC [37]: 0.5 µg/mL (≈ 0.666 µM) | MIC [38]: 1 µg/mL (≈ 1.33 µM) | MIC (Escherichia coli): > 256 µg/mL | MIC (Pseudomonas aeruginosa): > 256 µg/mL | Activity (A549 [39]): inactive | Activity (Lipid bilayer [40]): inactive | Activity (Lipid bilayer [41]): inactive | Activity (Lipid bilayer [42]): inactive | Activity (Lipid bilayer [43]): inactive
